# According to ChEMBL document CHEMBL4680331, “Ancistrobrevidines A-C and related naphthylisoquinoline alkaloids with cytotoxic activities against HeLa and pancreatic cancer cells, from the liana Ancistrocladus abbreviatus” (Bioorg Med Chem, 2021):
# Columns and labels:
# HeLa = assay: Cytotoxicity against human HeLa cells assessed as decrease in cell viability measured after 72 hrs by WST-8 assay; format: functional, cell-based
# PANC-1 [1] = assay: Anti-austerity activity against nutrient-deprived human PANC-1 cells assessed as cell death incubated for 24 hrs by WST-8 assay; format: functional
# PANC-1 [2] = assay: Inhibition of cell migration in human PANC1 cells assessed as open wound area at 40 uM cultured in nutrient rich DMEM medium measured after 24 hrs by quantitative real-time imaging based wound healing assay (reference value: 50%); format: functional; set-up: scale not given: the % may be the effect or the level left
# PANC-1 [3] = assay: Inhibition of cell migration in human PANC1 cells assessed as open wound area at 20 uM cultured in nutrient rich DMEM medium measured after 24 hrs by quantitative real-time imaging based wound healing assay (reference value: 50%); format: functional; set-up: scale not given: the % may be the effect or the level left
# PANC-1 [4] = assay: Inhibition of colony formation in human PANC-1 cells at 40 uM cultured in nutrient rich DMEM medium measured after 24 hrs by crystal violet staining based assay relative to control; format: functional
# PANC-1 [5] = assay: Cytotoxicity against nutrient-rich DMEM cultured human PANC-1 cells incubated for 24 hrs by WST-8 assay; format: cell-based; conditions: panc-1, 24 h
# PANC-1 [6] = assay: Inhibition of cell migration in human PANC1 cells assessed as open wound area at 40 uM cultured in nutrient rich DMEM medium measured after 48 hrs by quantitative real-time imaging based wound healing assay relative to control; format: functional; set-up: scale not given: the % may be the effect or the level left
# PANC-1 [7] = assay: Inhibition of colony formation in human PANC-1 cells at 10 uM cultured in nutrient rich DMEM medium measured after 24 hrs by crystal violet staining based assay relative to control; format: functional
# PANC-1 [8] = assay: Inhibition of colony formation in human PANC-1 cells at 20 uM cultured in nutrient rich DMEM medium measured after 24 hrs by crystal violet staining based assay relative to control; format: functional
# PANC-1 [9] = assay: Inhibition of cell migration in human PANC1 cells assessed as open wound area at 20 uM cultured in nutrient rich DMEM medium measured after 48 hrs by quantitative real-time imaging based wound healing assay relative to control; format: functional; set-up: scale not given: the % may be the effect or the level left
# PANC-1 [10] = assay: Induction of morphological changes in human PANC-1 cells cultured in nutrient-deprived medium assessed as cell death at 20 uM measured after 24 hrs by ethidium bromide/acridine orange staining based phase contrast microscopy relative to control; format: functional
Structure (SMILES),IC50 (HeLa) [µM],PC50 (PANC-1 [1]) [µM],other results
COc1cc(O)c(-c2c(C)cc(OC)c3c(OC)cccc23)c2c1C(C)=N[C@H](C)C2,> 100,46.8,–
COc1cc(OC)c(-c2ccc(O)c3c(OC)cc(C)cc23)c2c1C(C)=N[C@@H](C)C2,7.2,13.3,Activity (PANC-1 [2]): 77%; Activity (PANC-1 [3]): 62%; Activity (HeLa): Dose-dependent effect; inhibition at 40 µM (PANC-1 [4]): 100%; Activity (PANC-1 [5]): Non-Toxic; Activity (PANC-1 [6]): 70%; inhibition at 10 µM (PANC-1 [7]): 63%; inhibition at 20 µM (PANC-1 [8]): 95%; Activity (PANC-1 [9]): 25%; Activity (PANC-1 [10]): 100%
COc1cc(OC)c(-c2ccc(OC)c3c(OC)cc(C)cc23)c2c1C(C)=N[C@@H](C)C2 [ANCISTROEALAINE A],–,18.8,–
COc1cccc2c1C(=O)C(=O)C(C)=C2c1c(OC)cc(O)c2c1C[C@H](C)N[C@H]2C,84.3,28.5,–
COc1cc(OC)c(-c2c(C)cc(OC)c3c(OC)cccc23)c2c1C(C)=N[C@H](C)C2,46.9,64.5,–
COc1cc(C[C@H]2C(=O)OC[C@@H]2Cc2ccc(OC)c(OC)c2)ccc1O [ARCTIGENIN],–,0.83,–
